In patent publication US20250019387A1 (Frontier Medicines Corporation, priority 0001, published 2025):

What follows are compounds tested against KRAS G12C and cRAF (Ras-binding domain) interaction (Homo sapiens (Human), UniProt P01116, C118S/C51S/C80L/G12C) (assay: Inhibition of KRAS G12C and cRAF binding (AlphaScreen)). Settings: GMPPNP-loaded KRAS G12C, 19-20 hours incubation with compound; read-out: IC50 (Inhibition of KRAS G12C and cRAF Binding).
In short: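 Compounds (DMSO) preincubated 19-20 h at room temperature, then RBD with streptavidin donor and glutathione acceptor beads added in 25 mM Hepes pH 7.4, 150 mM NaCl, 5 mM MgCl2, 0.01% Triton X-100, 2% DMSO for 60-90 min. Emission 570 nm (excitation 680 nm); IC50 by 4-parameter fit. Counter-screen used biotin-AviTag-GST instead of RBD.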

KRAS G12C and cRAF (Ras-binding domain) interaction, sequence (P01116 other isoform, or with tags, fused parts or gaps G12C/C51S/C80L/C118S): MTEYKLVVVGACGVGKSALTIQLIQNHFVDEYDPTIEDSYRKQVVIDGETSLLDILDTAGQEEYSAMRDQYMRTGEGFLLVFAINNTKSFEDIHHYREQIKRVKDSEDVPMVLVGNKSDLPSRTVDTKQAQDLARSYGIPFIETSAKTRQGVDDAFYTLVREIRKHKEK

| IC50 | SMILES |
| --- | --- |
| < 10 nM | CN1CC(C)(C#CC(=O)N2CC[C@@H](N(C)c3nc(OC[C@@]45CCCN4C[C@H](F)C5)nc4c(F)c(-c5cccc6cccc(Cl)c56)ncc34)C2)C1 [Example 242, 1-((R)-3-((7-(8-chloronaphthalen-1-yl)-8-fluoro-2-(((2R,7aS)-2-fluorohexahydro-1H-pyrrolizin-7a-yl)methoxy)pyrido[4,3-d]pyrimidin-4-yl)(methyl)amino)pyrrolidin-1-yl)-3-(1,3-dimethylazetidin-3-yl)prop-2-yn-1-one] |
| > 500 nM | COC(=O)/C=C/C(=O)NC1CCN(c2nc(OC[C@@H]3CCCN3C)nc3c2CCN(c2cccc4cccc(Cl)c24)C3)C1 (stereo partly drawn) [Example 14, methyl(E)-4-((1-(7-(8-chloronaphthalen-1-yl)-2-(((S)-1-methylpyrrolidin-2-yl)methoxy)-5,6,7,8-tetrahydropyrido[3,4-d]pyrimidin-4-yl)pyrrolidin-3-yl)amino)-4-oxobut-2-enoate] |
| 10 to 100 nM | CN(c1nc(OCC23CCCN2CCC3)nc2c(F)c(-c3cccc4cccc(Cl)c34)ncc12)[C@@H]1CCN(C(=O)/C=C/c2nc([C@H]3C[C@@H]3F)no2)C1 [Example 129, (E)-1-((R)-3-((7-(8-chloronaphthalen-1-yl)-8-fluoro-2-((tetrahydro-1H-pyrrolizin-7a(5H)-yl)methoxy)pyrido[4,3-d]pyrimidin-4-yl)(methyl)amino)pyrrolidin-1-yl)-3-(3-((1R,2S)-2-fluorocyclopropyl)-1,2,4-oxadiazol-5-yl)prop-2-en-1-one] |
| < 10 nM | CN(c1nc(OC[C@@]23CCCN2C[C@H](F)C3)nc2c(F)c(-c3cccc4cccc(Cl)c34)ncc12)[C@@H]1CCN(C(=O)C#CC2CNCCO2)C1 (stereo partly drawn) [Example 64, 1-((R)-3-((7-(8-chloronaphthalen-1-yl)-8-fluoro-2-(((2R,7aS)-2-fluorohexahydro-1H-pyrrolizin-7a-yl)methoxy)pyrido[4,3-d]pyrimidin-4-yl)(methyl)amino)pyrrolidin-1-yl)-3-(morpholin-2-yl)prop-2-yn-1-one] |
| 100 to 500 nM | CN(c1nc(OC[C@@]23CCCN2C[C@H](F)C3)nc2c(F)c(-c3cccc4cccc(Cl)c34)ncc12)[C@@H]1CCN(C(=O)/C=C/c2cn(C)cn2)C1 [Example 135, (E)-1-((R)-3-((7-(8-chloronaphthalen-1-yl)-8-fluoro-2-(((2R,7aS)-2-fluorohexahydro-1H-pyrrolizin-7a-yl)methoxy)pyrido[4,3-d]pyrimidin-4-yl)(methyl)amino)pyrrolidin-1-yl)-3-(1-methyl-1H-imidazol-4-yl)prop-2-en-1-one] |
| 10 to 100 nM | CN1CCC(C#CC(=O)N2CC[C@@H](N(C)c3nc(OC[C@@]45CCCN4C[C@H](F)C5)nc4c(F)c(-c5cccc6cccc(Cl)c56)ncc34)C2)C1 (stereo partly drawn) [Example 65, 1-((R)-3-((7-(8-chloronaphthalen-1-yl)-8-fluoro-2-(((2R,7aS)-2-fluorohexahydro-1H-pyrrolizin-7a-yl)methoxy)pyrido[4,3-d]pyrimidin-4-yl)(methyl)amino)pyrrolidin-1-yl)-3-(1-methylpyrrolidin-3-yl)prop-2-yn-1-one] |
| > 500 nM | COC/C=C/C(=O)N1CCC(N(C)c2nc(OC[C@@H]3CCCN3C)nc3c2CCN(c2cccc4cccc(Cl)c24)C3)C1 (stereo partly drawn) [Example 5, (E)-1-(3-((7-(8-chloronaphthalen-1-yl)-2-(((S)-1-methylpyrrolidin-2-yl)methoxy)-5,6,7,8-tetrahydropyrido[3,4-d]pyrimidin-4-yl)(methyl)amino)pyrrolidin-1-yl)-4-methoxybut-2-en-1-one] |

Same assay, conditions: additional exemplary compounds; KRAS G12C and cRAF binding; read-out: RAF1 RBD IC50

| IC50 | SMILES |
| --- | --- |
| > 500 nM | C=CC(=O)N1CC(N(C)c2nc(OCC34CCCN3CCC4)nc3c2CCN(c2cccc4cccc(Cl)c24)C3)C1 |
| > 500 nM | Cc1nccc(/C=C/C(=O)N2CCC3(C2)CN(c2nc(OC[C@@]45CCCN4C[C@H](F)C5)nc4c(F)c(-c5cccc6cccc(Cl)c56)ncc24)C3)n1 |
| > 500 nM | C=CC(=O)N1C[C@H](C)C[C@H](Nc2nc(OC[C@@]34CCCN3C[C@H](F)C4)nc3c(F)c(-c4cccc5cccc(Cl)c45)ncc23)C1 |
| 10 to 100 nM | CCN(C/C=C/S(=O)(=O)CCN(C)c1nc(OCC23CCCN2CCC3)nc2c1CCN(c1cccc3cccc(Cl)c13)C2)CCOC |
